Experimental data from US20240182525A1, “NOVEL BICYCLIC COMPOUND, OPTICAL ISOMER THEREOF OR PHARMACEUTICALLY ACCEPTABLE SALT THEREOF, USE THEREOF, AND PREPARATION METHOD THEREFOR” (KOREARESEARCH INSTITUTE OF BIOSCIENCE AND BIOTECHNOLOGY, priority 2021, published 2024).

How the values were obtained:
Cytotoxicity assay, A375 = assay type: cell-based; conditions: human, A375 cells (malignant melanoma); A375, 48 hours, maximum concentration 100 μM
Procedure: (§1) To measure the cytotoxicity of the compound represented by Chemical Formula 1 (Chemical Formula 1-1), toxicity was measured in mouse preadipocyte 3T3-L1 cell line, human malignant melanoma A375 cell line, mouse malignant melanoma B16F10 cell line, human oral cancer MDA-MB-435 cell line, mouse breast cancer 4T1 cell line, human breast cancer MCF7 cell line, human brain cancer U87MG cell line, human glioblastoma U373MG cell line, human cervical cancer HeLa cell line, mouse embryonic fibroblast (MEF) cell line, human embryonic kidney HEK293T cell line (Korea Cell Line Bank). First, 1×10^4 cells were divided into 200 μl each in a 96-well plate using Dulbecco's Modified Eagle's Medium (DMEM) supplemented with 10% fetal bovine serum (FBS), […] streptomycin, and 50 U/ml penicillin, while maintaining various cells at 37r in an atmosphere of 5% CO2. The cells were treated with the compound of Chemical Formula 1-1 of the present invention at a maximum concentration of 100 μM and cultured for 48 hours under the same culture conditions. After the incubation, the culture media were removed and the cytotoxicity test results were confirmed (Table 2 and FIG. 3 below).

[1] = Cytotoxicity assay, B16F10; assay type: cell-based; conditions: mouse, B16F10 cells (malignant melanoma); B16F10, 48 hours, maximum concentration 100 μM
Procedure: as §1

[2] = Cytotoxicity assay, MDA-MB-435; assay type: cell-based; conditions: human, MDA-MB-435 cells (printed as oral cancer); MDA-MB-435, 48 hours, maximum concentration 100 μM
Procedure: as §1

Cytotoxicity assay, MCF7 = assay type: cell-based; conditions: human, MCF7 cells (breast cancer); MCF7, 48 hours, maximum concentration 100 μM
Procedure: as §1

[3] = Cytotoxicity assay, U373MG; assay type: cell-based; conditions: human, U373MG cells (glioblastoma), maximum concentration 100 μM
Procedure: as §1

Cytotoxicity assay, HeLa = assay type: cell-based; conditions: human, HeLa cells (cervical cancer), maximum concentration 100 μM
Procedure: as §1

Cytotoxicity assay, MEF = assay type: cell-based; conditions: mouse, MEF cells (embryonic fibroblasts), maximum concentration 100 μM
Procedure: as §1

[4] = system: Wnt activity (HEK293T-TopFLASH cells); experiment: TopFLASH luciferase assay, HEK293T-TopFLASH stable cell line (Wnt3a activity assay); assay type: cell-based, human; conditions: 1-50 μM, 24 hours
Procedure: In order to measure the level of Wnt activity of the compound of Chemical Formula 1-1, TopFLASH luciferase assay was performed on the HEK293T cell line. The TopFLASH luciferase assay was performed by creating a HEK293T-TopFLASH stable cell line with a viral vector made by combining Luciferase (reporter gene) with the TCF7 promoter. HEK293T-TopFLASH cells were cultured in a 96-well plate (1×10^4 cells/well), and the next day, the cells were treated with 1-50 μM of the compound of Chemical Formula 1-1 and confirmed by One-Glo™ (modified luciferin, Pormega, USA) after 24 hours.

3T3-L1 cells = experiment: Cytotoxicity in 3T3-L1 cells in L-conditional or Wnt3a-containing culture media; assay type: cell-based, mouse; conditions: 2.5 to 10 μM, Wnt3a-containing culture media (2.5%), FIG. 3
Procedure: Next, in order to confirm the cytotoxicity in the Chemical Formula 1-1 and wnt3 culture, toxicity in 3T3-L1 cells was measured on the compound of Chemical Formula 1-1 of the present invention at a concentration of 2.5 to 10 μM in L-conditional media or Wnt3a-containing culture media (2.5%).

C57BL/C6 mice = experiment: Anti-obesity effect in high calorie diet mouse model; assay type: in vivo; conditions: high calorie diet + 15 mg/kg, FIG. 12
Procedure: C57BL/C6 mice were used to test the anti-obesity effect in a mouse model with respect to the compound of Chemical Formula 1 of the present invention, which is an adipogenesis-inhibiting compound. For effective evaluation of the anti-obesity model, the control group (general diet), the control group (high calorie diet), and an anti-obesity control group (high calorie diet+Chemical Formula 1 (15 mg/kg)) were compared and evaluated (FIG. 12). The mice injected with the high-calorie diet rather than the general diet gained 131% in body weight, but the mice treated with the high-calorie diet and Chemical Formula 1 (15 mg/kg) together […] 115% in body weight.

MC3T3-E1 cell line = experiment: Cytotoxicity assay in MC3T3-E1 pre-osteoblasts; assay type: cell-based, mouse; conditions: concentration range of 50 μM or less, 7 days, FIG. 14
Procedure: In order to measure the cytotoxicity of the compound represented by Chemical Formula 1 (Chemical Formula 1-1), toxicity was measured in the MC3T3-E1 cell line (Korea Cell Line Bank), which is a pre-osteoblast related to bone formation.
Specifically, a cytotoxicity test was performed to determine the in vivo safety of Chemical Formula 1-1 above. MC3T3-E1 cells, which are mouse osteoblasts, were inoculated into a 96-well plate at a concentration of 5×10^3 cell/well, and incubated overnight in growth media containing alpha-minimum essential media (alpha-MEM, JBI #008-53) supplemented with 10% fetal bovine serum (FBS, Gibco #16000, USA) and 1× antibiotics (Gibco #15240062, USA). […] After incubation, the media were removed, 90 μl of the media and 10 μl of WTS solution were added, and after 1 hour, the absorbance was measured at 450 nm using a microplate reader.

CC(C)CC1NC(=O)C2CCCN2C(=O)C(C(O)C(C)C)NC(=O)CNC(=O)C(C(C)O)NC(=O)C2NC(=O)C(NC(=O)/C=C/c3ccccc3C(O)C(C)O)C(C)OC(=O)C(CC(N)=O)NC(=O)C(NC(=O)C(O)NC1=O)C(O)c1ccc(O)c(c1)Oc1ccc2cc1 (centres unmarked) [Chemical Formula 1-1] showed an IC50 at 48 h (Cytotoxicity assay, A375) of over 100 µM, an IC50 at 48 h [1] of over 100 µM and an IC50 at 48 h [2] of over 100 µM. It also gave an IC50 at 48 h (Cytotoxicity assay, MCF7) of over 100 µM, an IC50 at 48 h [3] of 89.5 µM and an IC50 at 48 h (Cytotoxicity assay, HeLa) of over 100 µM. For the same compound, the IC50 at 48 h (Cytotoxicity assay, MEF) was over 100 µM, the “Wnt activity (luciferase values)” value ([4]; compound alone, FIG. 4) was “greatly increased” and the “Wnt activity (luciferase values)” value ([4]; simultaneous treatment with Wnt3a-conditional media (2.5%), FIG. 5) was “greatly increased”. For the same compound, the cytotoxicity (3T3-L1 cells) was “cytotoxicity was not observed”, the abdominal fat weight (C57BL/C6 mice) was “significant decrease” and the liver weight (C57BL/C6 mice) was “significant decrease”. For the same compound, the body weight (C57BL/C6 mice; high-calorie diet alone 131%) was 115% and the cytotoxicity (MC3T3-E1 cell line) was “did not exhibit cytotoxicity”.
